Where no end group is shown, it is not given here.
Tests used:
MG63 cells [1] = assay: p53 protein expression level, immunofluorescence staining quantified with ImageJ, osteosarcoma cells; assay type: cell-based, human; parameters: P53: unit not given here; details: for p53 (%): Table 4, cyclic GFR-binding peptide in association with SiRNA Integrin alpha 3 and SiRNA Integrin beta 1, 400 ng/mL, 24 hours; for P53: Table 9, in association with SiRNA Integrin alpha 3+SiRNA Integrin beta 1 (SEQ ID NO: 141 to 163)
Protocol: (§1) The following starting materials and reagents were used: • Type-I collagen sponge was obtained from Sigma®. • PBS 1× was obtained from Gibco®. • MilliQ water: is water characterised in terms of resistivity (typically 18.2 MΩ·cm at 25° C.). • Low glucose Dulbecco's Modified Eagle Medium (DMEM) was obtained from Invitrogen® • Minimum Essential Medium Eagle without ascorbic acid (αMEM) was obtained from Invitrogen®. • All of the cell culture experiments were carried out without any serum in the medium for the first 8 hours of culture. • Osteosarcoma cells: MG63 cells were obtained from ATCC®. These cells were cultured in DMEM (Eagle's Minimum Essential Medium) medium supplemented with 10% fetal calf serum (FCS) and 1% penicillin/streptomycin. All cells were used at a low passage number (passage 10), were subconfluently cultured and were seeded at 10^4 cells/cm^2 for the purpose of the experiments. • Chondrosarcoma cells Hs819.T cells were obtained from ATCC®. These cells were cultured in DMEM (Eagle's Minimum Essential Medium) medium supplemented with 10% fetal calf serum (FCS) and 1% penicillin/streptomycin. All cells were used at a low passage number (passage 10), were subconfluently cultured and were seeded at 10^4 cells/cm^2 for the purpose of the experiments. • Rhabdomyosarcoma cells: A-673 cells were obtained from ATCC®. These cells were cultured in DMEM (Eagle's Minimum Essential Medium) medium supplemented with 10% fetal calf serum (FCS) and 1% penicillin/streptomycin. All cells were used at a low passage number (passage 10), were subconfluently cultured and were seeded at 10^4 cells/cm^2 for the purpose of the experiments. • Adenocarcinoma cells: HCC4006 cells were obtained from ATCC®. These cells were cultured in RPMI-1640 medium (obtained from ATCC®) supplemented with 10% fetal calf serum (FCS) and 1% penicillin/streptomycin. All cells were used at a low passage number (passage 10), were subconfluently cultured and were seeded at 10^4 cells/cm^2 for the purpose of the experiments. • CMFDA is a Cell Tracker Green obtained from Invitrogen®. • DAPI was obtained from Sigma®. • Fetal bovine serum (FBS) was obtained from Gibco®. • Penicillin/streptomycin was obtained from Invitrogen®. • The AlamarBlue® assay was obtained from Molecular Probes®. • Anti phospho-p53 antibody was obtained from Santa Cruz Biotechnology®, • Anti pRB antibody was obtained from Santa Cruz Biotechnology®, • Monoclonal anti-integrin (extracellular domain) αv, α5, α3, α4, β1, β3, β5 and β9 antibodies were obtained from Santa Cruz Biotechnology®, • Cell cytoskeletal filamentous actin (F-actin) was visualized by Alexa Fluor® 488 phalloidin Sigma® labeling. • Monoclonal anti-vinculin antibody (clone hVIN-1, produced in mouse) was obtained from Sigma®.
(§2) • All of the peptides were synthetized using conventional solution and/or solid phase peptide synthesis methods. • All of the experiments were performed with a concentration of 400 ng/mL of GFR-binding compound(s) as defined herein. • All cell culture experiments were performed with cultures on plastic coated with type-I collagen in order to mimic the physiological conditions of the human body. • The compositions of pharmaceutical compositions used in the examples below are summarized in the following table:
(§3) The cells were first fixed for 20 min with 4% paraformaldehyde/PBS at 4° C. After fixation, the cells were permeabilized in PBS containing 1% Triton X-100 for 15 min. Protein immunofluorescent visualization was performed by first treating the cells with 1% (v/v) specific monoclonal antibodies for 1 hour at 37° C. Then the samples were incubated with Alexa Fluor® 568 or 647 (F(ab′)2 fragment of IgG(H+L)) during 30 min at room temperature. The cell nuclei were counterstained in 20 ng/mL DAPI for 10 min at room temperature.
(§4) For this type of quantification the freeware image analysis ImageJ® software was used. […]

MG63 cells [2] = assay: pRB phosphorylation level, immunofluorescence staining quantified with ImageJ, osteosarcoma cells; assay type: cell-based, human; details: for pRB: Table 9, in association with SiRNA Integrin alpha 3+SiRNA Integrin beta 1 (SEQ ID NO: 141 to 163)
Protocol: as §1, §2, §3, §4

[3] = tested on: human rhabdosarcoma cells; assay: p53 quantification, same procedure, rhabdosarcoma cells; assay type: cell-based; parameters: P53: unit not given here; details: for P53: Table 9, in association with SiRNA Integrin alpha 3+RGDSPC+SiRNA Integrin beta 1+SiRNA Syndecan 1 (SEQ ID NO: 31, 32, 164 to 187)
Protocol: as §1, §2, §3, §4

[4] = tested on: human rhabdosarcoma cells; assay: pRB quantification, same procedure, rhabdosarcoma cells; assay type: cell-based; details: for pRB: Table 9, in association with SiRNA Integrin alpha 3+RGDSPC+SiRNA Integrin beta 1+SiRNA Syndecan 1 (SEQ ID NO: 31, 32, 164 to 187)
Protocol: as §1, §2, §3, §4

[5] = Table 4, MG63 cells, cyclic GFR-binding peptide in association with SiRNA Integrin alpha 3 and SiRNA Integrin beta 1, 400 ng/mL, 24 hours
[6] = Table 7, human osteosarcoma cells, MG63, GFR-binding compound within pharmaceutical association
[7] = Table 8, in association with SiRNA Integrin alpha 3, v, 4 and SiRNA Integrin beta 1
[8] = Table 5, cyclic GFR-binding peptide in association with SiRNA Integrin alpha 3+RGDSPC+SiRNA Integrin beta 1+SiRNA Syndecan 1, 400 ng/mL

Sequence: VPTSSSPISTLYIDKGVVTYLKYHYSSVAEDEYDKVV (not fully specified; also: cyclic peptide) [SEQ ID NO: 38205]
- p53 (%) (MG63 cells [1]): 40%
- pRB (%) (MG63 cells [2]; [5]): 16%

Sequence: CASASPSSVSQDLSAISTLYLIGKTPKILKNYQMIVKSSKSS (Non-cyclic GFR-binding peptide) [SEQ ID NO: 143]
- P53 (MG63 cells [1]): 37
- pRB (MG63 cells [2]; MG63 cells): 14

Sequence: CSIPKASSVPTELSATSVLYYDEYDEKVVLRKHEMVVEG (Non-cyclic GFR-binding peptide) [SEQ ID NO: 153]
- P53 (MG63 cells [1]): 39
- pRB (MG63 cells [2]; MG63 cells): 10

Sequence: VPQAAEPLPMLYYDKGVVTYEQLSNAAVRSDKGVVTY (also: cyclic peptide) [SEQ ID NO: 38210]
- p53 (%) (MG63 cells [1]): 40%
- pRB (%) (MG63 cells [2]; [5]): 12%

Sequence: VSQDLSAISTLYLKIVRKEPLKNYQEMVEE (Non-cyclic GFR-binding peptide) [SEQ ID NO: 58]
- pRB (%) (MG63 cells [2]; [6]): 19%

Sequence: WWFWGKVPKPSSAPTQLSAISTLYLDEYDKVVLKNYQNMVVR (Non-cyclic GFR-binding peptide) [SEQ ID NO: 162]
- P53 (MG63 cells [1]): 39
- pRB (MG63 cells [2]; MG63 cells): 8

Sequence: SRVLLRPVQMRKIDKGVVTYKKATVLLEEHDKGVVTY (not fully specified; also: cyclic peptide) [SEQ ID NO: 38216]
- p53 (%) (MG63 cells [1]): 41%
- pRB (%) (MG63 cells [2]; [5]): 11%

Sequence: CKVPKPSSAPTQLSAISTLYLDEYDKVVLKNYQNMVVRA (Non-cyclic GFR-binding peptide) [SEQ ID NO: 141]
- P53 (MG63 cells [1]): 41
- pRB (MG63 cells [2]; MG63 cells): 11

Sequence: VPTAAEPISMLYLDEYDKVVKFKYEAAAVSNDKQQII (also: cyclic peptide) [SEQ ID NO: 38206]
- p53 (%) (MG63 cells [1]): 36%
- pRB (%) (MG63 cells [2]; [5]): 8%

Sequence: CGGGSSVPTELSAISTLYLDDYDKVILKKYRNM (Non-cyclic GFR-binding peptide) [SEQ ID NO: 161]
- P53 (MG63 cells [1]): 52
- pRB (MG63 cells [2]; MG63 cells): 10

Sequence: NDEGLECVPTEERPVQVRKIRIKPHQGQKKATVFLQHNK [SEQ ID NO: 59] (Non-cyclic GFR-binding peptide)
- pRB (%) (MG63 cells [2]; [6]): 22%

Sequence: CPKPSSAPTQLNAISMLYFGGGGGGGLKKYRNMVVRA (Non-cyclic GFR-binding peptide) [SEQ ID NO: 151]
- P53 (MG63 cells [1]): 39
- pRB (MG63 cells [2]; MG63 cells): 9

Sequence: VPTDDSATSTLYYDKGVVTYLRKHRDDEHSDKGVVTY (also: cyclic peptide) [SEQ ID NO: 38214]
- p53 (%) (MG63 cells [1]): 48%
- pRB (%) (MG63 cells [2]; [5]): 18%

Sequence: SRVAARSVKMAKVGGGGGGGKEVQVAAEEHGGGGGG (not fully specified; also: cyclic peptide) [SEQ ID NO: 38213]
- p53 (%) (MG63 cells [1]): 49%
- pRB (%) (MG63 cells [2]; [5]): 21%

Sequence: VPTAASAISILYLDAANNVVLKNYQAAVVEDKGVVTY (also: cyclic peptide) [SEQ ID NO: 38200]
- p53 (%) (MG63 cells [1]): 41%
- pRB (%) (MG63 cells [2]; [5]): 17%

Sequence: VPTVVSAISTLYLRIKPHQGQHLKNYQVVVVENDKQQII (also: cyclic peptide) [SEQ ID NO: 38202]
- p53 (%) (MG63 cells [1]): 42%
- pRB (%) (MG63 cells [2]; [5]): 9%

Sequence: NDEGLECVPTEERPVQVRKIRIKPHQGQKKATVFLQHNK [SEQ ID NO: 54] (Non-cyclic GFR-binding peptide)
- pRB (%) (MG63 cells [2]; [6]): 12%

Sequence: VPQQQEPLTTLYYDEYDKVVEQLSNQQVKSNDKQQII (also: cyclic peptide) [SEQ ID NO: 38211]
- p53 (%) (MG63 cells [1]): 47%
- pRB (%) (MG63 cells [2]; [5]): 14%

Sequence: CKVGKASSVPTKLSAISTLYLDDMGVPTLKNYQNMVVRASGSH (Non-cyclic GFR-binding peptide) [SEQ ID NO: 142]
- P53 (MG63 cells [1]): 36
- pRB (MG63 cells [2]; MG63 cells): 8

Sequence: CTVPKPSSAPTQLSPISVLYKDDSSNVILKYHYNMVVRASGSH (Non-cyclic GFR-binding peptide) [SEQ ID NO: 147]
- P53 (MG63 cells [1]): 37
- pRB (MG63 cells [2]; MG63 cells): 8

Sequence: CASSAVSQELSAISMLYLGGGLKNYQDM (Non-cyclic GFR-binding peptide) [SEQ ID NO: 155]
- P53 (MG63 cells [1]): 47
- pRB (MG63 cells [2]; MG63 cells): 6

Sequence: RNVQCRPTQLEPLPIVYYEIVRKKPEQLSNTLEDHLA [SEQ ID NO: 56] (Non-cyclic GFR-binding peptide)
- pRB (%) (MG63 cells [2]; [6]): 21%

Sequence: RNVQCRPTQLEPLPIVYYEIVRKKPEQLSNTLEDHLA [SEQ ID NO: 61] (Non-cyclic GFR-binding peptide)
- pRB (%) (MG63 cells [2]; [6]): 18%

Sequence: TQVAARPVQTRKIDDMGVPTKKATVAAEDHDKGVVTY (not fully specified; also: cyclic peptide) [SEQ ID NO: 38217]
- p53 (%) (MG63 cells [1]): 42%
- pRB (%) (MG63 cells [2]; [5]): 9%

Sequence: ASASPSSVPQDLEPLTILYYVGRTPKVEQLSNMV (Non-cyclic GFR-binding peptide) [SEQ ID NO: 55]
- pRB (%) (MG63 cells [2]; [6]): 17%

Sequence: TQVAARPVQTRKIDDMGVPTKKATVAAEDH (Non-cyclic GFR-binding peptide) [SEQ ID NO: 140]
- P53 (%) [3, 7]: 35%
- pRB (%) [4, 7]: 17%

Sequence: GTPGPKASSVPTELSPISTLYKDENEKVVLKYHYDMVVEGSGSR (Non-cyclic GFR-binding peptide) [SEQ ID NO: 167]
- P53 [3]: 41
- pRB [4]: 11

Sequence: APTLLNAISMLYFNDKQQIILKKYRLLVVR (Non-cyclic GFR-binding peptide) [SEQ ID NO: 126]
- P53 (%) [3, 7]: 41%
- pRB (%) [4, 7]: 8%

Sequence: EPSSVSQAAEPLPIVYYRIKPHQGQHEQLSNMIVKSSKSSDDMGVPT (also: cyclic peptide, ring closure not given here) [SEQ ID NO: 38226]
- P53 (%) [3, 8]: 29%
- pRB (%) [4, 8]: 12%

Sequence: GTPGPASSAVSQELSAISMLYLGGGLKNYQDM (Non-cyclic GFR-binding peptide) [SEQ ID NO: 32]
- P53 [3]: 46
- pRB [4]: 7

Sequence: APVKMEPLPTVYYDDMGVPTEQLSNDMVEESGSLDDMGVPT (also: cyclic, ring not given here) [SEQ ID NO: 38225]
- P53 (%) [3, 8]: 49%
- pRB (%) [4, 8]: 9%

Sequence: GTPGPPKPSSAPTQLNAISMLYFGGGGGLKKYRDMQHN (Non-cyclic GFR-binding peptide) [SEQ ID NO: 169]
- P53 [3]: 37
- pRB [4]: 8

Sequence: EPSSSRVRLEPLTTLYYGGGGGGGEQLSNVVEEHSKDKGVVTY (also: cyclic peptide, ring closure not given here) [SEQ ID NO: 38224]
- P53 (%) [3, 8]: 46%
- pRB (%) [4, 8]: 8%

Sequence: VPTGGEPLTTLYYNDKQQIIEQLSNGGEHS (Non-cyclic GFR-binding peptide) [SEQ ID NO: 138]
- P53 (%) [3, 7]: 45%
- pRB (%) [4, 7]: 20%

Sequence: CVPQRLSPISILYIDAANNVVYKQYE (Non-cyclic GFR-binding peptide) [SEQ ID NO: 186]
- P53 [3]: 38
- pRB [4]: 12

Sequence: GTPGPAPTKLSAISMLYLDSSNNVILKKYR (Non-cyclic GFR-binding peptide) [SEQ ID NO: 166]
- P53 [3]: 37
- pRB [4]: 10

Sequence: CGIPEPSSVPEKMSSLSILFFDENKNVVLKVYPNM (Non-cyclic GFR-binding peptide) [SEQ ID NO: 179]
- P53 [3]: 40
- pRB [4]: 11
